Like-named read-outs stand apart in the source and are kept apart here.
Tests used:
[1] = classification of the substance (M+/M−); cited from earlier work
[2] = test system: liver; details: cited from earlier work
[3] = test system: rodent; details: cited from earlier work
[4] = test system: mRNA expressed from the genes (A) to (D) in rat liver; assay: Behavior of genes (mRNA expression level, oligo-DNA microarray) in rat liver after 28-day oral administration; format: in vivo
Summary of the method: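 Male F344 SPF rats, 5 weeks old, four per group, dosed by oral gavage once daily for 28 days with test chemical or matched-volume solvent. Liver total RNA profiled on oligo-DNA microarray. Change ≥1.5-fold or ≤1/1.5 versus vehicle counted as significant if its direction matched that seen with other carcinogens.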

[5] = gene group (A), Unigene No. Rn.167075, mRNA vs vehicle control group
[6] = gene group (C), Unigene No. Rn.120914, mRNA vs vehicle control group

## Cc1c(C)c2c(c(C)c1O)CC[C@@](C)(CCC[C@H](C)CCC[C@H](C)CCCC(C)C)O2 [TS062, α-Tocopherol (Vitamin E)]
[1]
  Mutagenicity by Ames test: M−
[2]; in vivo
  Liver carcinogenicity: Cr−
[3]; in vivo
  Carcinogenicity: C−
[4]; rat, in vivo
  Behavior of gene caused by administration of chemical substance, Gene No. 154: −
  Behavior of gene caused by administration of chemical substance, Gene No. 533: −
  Behavior of gene caused by administration of chemical substance, Gene No. 725: −
  Behavior of gene caused by administration of chemical substance, Gene No. 813: −
  Behavior of gene caused by administration of chemical substance, Gene No. 893: −
  Behavior of gene caused by administration of chemical substance, Gene No. 1119: −
  Behavior of gene caused by administration of chemical substance, Gene No. 1131: −
  Behavior of gene caused by administration of chemical substance, Gene No. 1163: +
  Behavior of gene caused by administration of chemical substance, Gene No. 1334: −
  Behavior of gene caused by administration of chemical substance, Gene No. 1494: −
  Behavior of gene caused by administration of chemical substance, Gene No. 1562: −
  Behavior of gene caused by administration of chemical substance, Gene No. 1741: −
  Behavior of gene caused by administration of chemical substance, Gene No. 1993: −
  Behavior of gene caused by administration of chemical substance, Gene No. 2026: −
  Behavior of gene caused by administration of chemical substance, Gene No. 2045: −
  Behavior of gene caused by administration of chemical substance, Gene No. 2203: −
  Behavior of gene caused by administration of chemical substance, Gene No. 2494: −
  Behavior of gene caused by administration of chemical substance, Gene No. 2546: −
  Behavior of gene caused by administration of chemical substance, Gene No. 3776: −
  Behavior of gene caused by administration of chemical substance, Gene No. 3929: −
  Behavior of gene caused by administration of chemical substance, Gene No. 4095: −
  Behavior of gene caused by administration of chemical substance, Gene No. 4218: −
  Behavior of gene caused by administration of chemical substance, Gene No. 4846: −
  Behavior of gene caused by administration of chemical substance, Gene No. 4973: −
  Behavior of gene caused by administration of chemical substance, Gene No. 5600: −
  Behavior of gene caused by administration of chemical substance, Gene No. 5634: −
  Behavior of gene caused by administration of chemical substance, Gene No. 5726: −
  Behavior of gene caused by administration of chemical substance, Gene No. 5878: −
  Behavior of gene caused by administration of chemical substance, Gene No. 6026: −
  Behavior of gene caused by administration of chemical substance, Gene No. 6182: −
  Behavior of gene caused by administration of chemical substance, Gene No. 6303: −
  Behavior of gene caused by administration of chemical substance, Gene No. 6620: −
  Behavior of gene caused by administration of chemical substance, Gene No. 6742: +

## ClC(Cl)=C(Cl)Cl [TS066, Tetrachloroethylene]
[1]
  Mutagenicity by Ames test: M−
[2]; classification of the substance (Cr+/Cr−)
  Liver carcinogenicity: Cr−
[3]; classification of the substance (C+/C−)
  Carcinogenicity: C+
[4]; gene group (A), Unigene No. Rn.144554, mRNA vs vehicle control group
  Behavior of gene caused by administration of chemical substance, Gene No. 4846: −
[4]; [5]
  Behavior of gene caused by administration of chemical substance, Gene No. 2026: −
  Behavior of gene caused by administration of chemical substance, Gene No. 4218: −
[4]; gene group (A), Unigene No. Rn.5834, mRNA vs vehicle control group
  Behavior of gene caused by administration of chemical substance, Gene No. 6182: +
[4]; gene group (A), Unigene No. Rn.9836, mRNA vs vehicle control group
  Behavior of gene caused by administration of chemical substance, Gene No. 5600: −
[4]; gene group (B), Unigene No. Rn.1430, mRNA vs vehicle control group
  Behavior of gene caused by administration of chemical substance, Gene No. 1494: −
[4]; gene group (B), Unigene No. Rn.19329, mRNA vs vehicle control group
  Behavior of gene caused by administration of chemical substance, Gene No. 2045: +
[4]; gene group (B), Unigene No. Rn.21240, mRNA vs vehicle control group
  Behavior of gene caused by administration of chemical substance, Gene No. 2203: −
[4]; gene group (C), Unigene No. Rn.106184, mRNA vs vehicle control group
  Behavior of gene caused by administration of chemical substance, Gene No. 533: +
[4]; gene group (C), Unigene No. Rn.108075, mRNA vs vehicle control group
  Behavior of gene caused by administration of chemical substance, Gene No. 725: −
[4]; gene group (C), Unigene No. Rn.11766, mRNA vs vehicle control group
  Behavior of gene caused by administration of chemical substance, Gene No. 1163: −
[4]; gene group (C), Unigene No. Rn.118529, mRNA vs vehicle control group
  Behavior of gene caused by administration of chemical substance, Gene No. 4973: −
[4]; gene group (C), Unigene No. Rn.119024, mRNA vs vehicle control group
  Behavior of gene caused by administration of chemical substance, Gene No. 4095: −
[4]; [6]
  Behavior of gene caused by administration of chemical substance, Gene No. 1334: −
  Behavior of gene caused by administration of chemical substance, Gene No. 6620: −
[4]; gene group (C), Unigene No. Rn.123063, mRNA vs vehicle control group
  Behavior of gene caused by administration of chemical substance, Gene No. 6303: −
[4]; gene group (C), Unigene No. Rn.143213, mRNA vs vehicle control group
  Behavior of gene caused by administration of chemical substance, Gene No. 5878: −
[4]; gene group (C), Unigene No. Rn.144946, mRNA vs vehicle control group
  Behavior of gene caused by administration of chemical substance, Gene No. 1131: −
[4]; gene group (C), Unigene No. Rn.14744, mRNA vs vehicle control group
  Behavior of gene caused by administration of chemical substance, Gene No. 1562: −
[4]; gene group (C), Unigene No. Rn.1647, mRNA vs vehicle control group
  Behavior of gene caused by administration of chemical substance, Gene No. 1741: −
[4]; gene group (C), Unigene No. Rn.164817, mRNA vs vehicle control group
  Behavior of gene caused by administration of chemical substance, Gene No. 893: −
[4]; gene group (C), Unigene No. Rn.167685, mRNA vs vehicle control group
  Behavior of gene caused by administration of chemical substance, Gene No. 6026: −
[4]; gene group (C), Unigene No. Rn.185941, mRNA vs vehicle control group
  Behavior of gene caused by administration of chemical substance, Gene No. 154: −
[4]; gene group (C), Unigene No. Rn.18728, mRNA vs vehicle control group
  Behavior of gene caused by administration of chemical substance, Gene No. 1993: −
[4]; gene group (C), Unigene No. Rn.201760, mRNA vs vehicle control group
  Behavior of gene caused by administration of chemical substance, Gene No. 813: −
[4]; gene group (C), Unigene No. Rn.23969, mRNA vs vehicle control group
  Behavior of gene caused by administration of chemical substance, Gene No. 2494: −
[4]; gene group (C), Unigene No. Rn.24561, mRNA vs vehicle control group
  Behavior of gene caused by administration of chemical substance, Gene No. 2546: −
[4]; gene group (C), Unigene No. Rn.43232, mRNA vs vehicle control group
  Behavior of gene caused by administration of chemical substance, Gene No. 3776: −
[4]; gene group (C), Unigene No. Rn.4620, mRNA vs vehicle control group
  Behavior of gene caused by administration of chemical substance, Gene No. 3929: −
[4]; gene group (C), Unigene No. Rn.9757, mRNA vs vehicle control group
  Behavior of gene caused by administration of chemical substance, Gene No. 1119: −
[4]; gene group (C), Unigene No. Rn.9779, mRNA vs vehicle control group
  Behavior of gene caused by administration of chemical substance, Gene No. 6742: −
[4]; gene group (C), Unigene No. Rn.9862, mRNA vs vehicle control group
  Behavior of gene caused by administration of chemical substance, Gene No. 5634: −
[4]; gene group (D), Unigene No. Rn.9939, mRNA vs vehicle control group
  Behavior of gene caused by administration of chemical substance, Gene No. 5726: −
